According to patent publication US7731985B2, “4-aminopyrimidines and their use for the antimicrobial treatment of surfaces” (Ciba Specialty Chemicals Corporation, priority 2002, dated 2010):

How the values were obtained:
Assay in all cases: MIC in microtitre plates (Example 10)
Type in all cases: cell-based
Design in all cases: unit not given here
Conditions in all cases: microtitre plate, 48 hours at 37° C., ≦20% growth
[1] = system: Escherichia coli NCTC 8196 (=EC)
Experimental: (§1) Determination of the Minimum Inhibitory Concentration (MIC Value) in Microtitre Plates Casein/soymeal peptone broth for preparation of pre-cultures of test bacteria and yeast Bacteria: • Pseudomonas aeruginosa CIP A-22 (=PA) • Escherichia coli NCTC 8196 (=EC) • Staphylococcus aureus ATCC 9144 (=SA) • Candida albicans ATCC 10231 (=CA) The test substances are pre-dissolved in dimethyl sulfoxide (DMSO) and tested in a dilution series of 1:2. Bacteria and yeast are cultured overnight in CASO broth. All the test organism suspensions are adjusted to an organism count of 1-5×10^6 CFU/ml using […] sodium chloride solution. The test substances are pre-pipetted into microtitre plates in amounts of 8 μl per well. The pre-adjusted organism suspensions are diluted 1:100 in CASO broth and are added in amounts of 192 μl per well to the test substances. The test batches are incubated for 48 hours at 37° C. The incubation, the growth is determined on the basis of the turbidity of the test batches (optical density) at 620 nm in a microplate reader. The minimum inhibitory concentration (MIC value) is the concentration of substance at which (compared to the growth of the control) an appreciable inhibition of growth (≦20% growth) of the test organisms is observed. Three microtitre plates are used for each test organism and substance concentration. All the substances are tested in duplicate.

[2] = system: Pseudomonas aeruginosa CIP A-22 (=PA)
Experimental: as §1

[3] = system: Staphylococcus aureus ATCC 9144 (=SA)
Experimental: as §1

[4] = system: Candida albicans ATCC 10231 (=CA)
Experimental: as §1

Row | SMILES | MIC EC [1] | MIC PA [2] | MIC SA [3] | MIC CA [4]
1 | CCCCCCCCCCCCCCNc1cc(C)nc(-c2cccnc2)n1 [compound 38] | 7.5 | >120 | <3.75 | <3.75
2 | CCCCCCCCCCCCCCCCNc1cc(C)nc(-c2cccnc2)n1 [compound 39] | 30 | >120 | <3.75 | 15
3 | CCCC(C)Nc1cc(C)nc(-c2cccnc2)n1 (stereo not drawn) [compound 40] | >120 | >120 | 60 | 120
4 | Cc1cc(NC(C)CC(C)C)nc(-c2cccnc2)n1 (stereo not drawn) [compound 41] | >120 | >120 | 30 | 60
5 | CCCCC(CC)CNc1cc(C)nc(-c2cccnc2)n1 (stereo not drawn) [compound 42] | 120 | >120 | <3.75 | 30
6 | COCC(C)Nc1cc(C)nc(-c2cccnc2)n1 (stereo not drawn) [compound 43] | >120 | >120 | 60 | 120
7 | CCN(CC)CCCNc1cc(C)nc(-c2cccnc2)n1 [compound 44] | >120 | >120 | 120 | 120
8 | Cc1cc(NCc2ccccc2)nc(-c2cccnc2)n1 [compound 45] | >120 | >120 | 60 | 120
9 | Cc1cc(NC2CCCCC2)nc(-c2cccnc2)n1 [compound 46] | >120 | >120 | 120 | 120
10 | Cc1cc(Nc2ccccn2)nc(-c2cccnc2)n1 [compound 47] | >120 | >120 | 120 | >120
11 | Cc1cc(NCCc2ccccc2)nc(-c2cccnc2)n1 [compound 48] | >120 | >120 | 30 | 60
12 | Cc1cc(NCc2ccccn2)nc(-c2cccnc2)n1 [compound 49] | >120 | >120 | 120 | >120
13 | Cc1cc(N2CCOCC2)nc(-c2cccnc2)n1 [compound 50] | >120 | >120 | 120 | >120
14 | Cc1cc(NCc2ccco2)nc(-c2cccnc2)n1 [compound 51] | >120 | >120 | 30 | >120
15 | CCCN(CCC)c1cc(C)nc(-c2cccnc2)n1 [compound 52] | >120 | >120 | 30 | 120
16 | CCCCN(C)c1cc(C)nc(-c2cccnc2)n1 [compound 53] | >120 | >120 | 60 | 120
17 | CCCCN(CCCC)c1cc(C)nc(-c2cccnc2)n1 [compound 54] | >120 | >120 | 15 | 120
18 | Cc1cc(N(C)CCO)nc(-c2cccnc2)n1 [compound 55] | >120 | >120 | 120 | >120
19 | Cc1cc(N2CCCCCC2)nc(-c2cccnc2)n1 [compound 56] | >120 | >120 | 60 | 120
20 | CCCCCCCCNc1cc(C)nc(-c2ccc(-c3ccccc3)cc2)n1 [compound 57] | >120 | >120 | 60 | 120
21 | CCCCCCCCNc1cc(C)nc(-c2ccc(C(C)(C)C)cc2)n1 [compound 58] | 120 | >120 | 15 | 60
22 | CCCCCCCCNc1cc(C)nc(-c2cccs2)n1 [compound 59] | 60 | >120 | 15 | 60
23 | CCCCCCCCNc1cc(C)nc(-c2cccc(C)c2)n1 [compound 60] | >120 | >120 | 120 | 120
24 | CCCCCCCCNc1cc(C)nc(-c2cccc(F)c2)n1 [compound 61] | 120 | >120 | 30 | 120

Row | SMILES | MIC EC [1] | MIC PA [2] | MIC SA [3] | MIC CA [4]
25 | CCCCCCCCNc1cc(C)nc(-c2cccc(OC)c2)n1 [compound 62] | 120 | >120 | 60 | 120
26 | CCCCCCCCNc1cc(C)nc(-c2ccccc2)n1 [compound 63] | 30 | >120 | 15 | 60
27 | CCCCCCCCNc1cc(C)nc(-c2ccccc2)n1 [compound 64] | 30 | >120 | 7.5 | 15
28 | CCCCCCCCNc1cc(C)nc(C)n1 [compound 65] | 60 | >120 | 30 | 15
29 | CCCCCCCCNc1cc(C)nc(-c2ccc(C)cc2)n1 [compound 66] | 30 | >120 | <3.75 | 30
30 | CCCCCCCCNc1cc(C)nc(C2CC2)n1 [compound 67] | 30 | >120 | 7.5 | 7.5
31 | CCCCCCCCNc1cc(C)nc(C(C)C)n1 [compound 68] | 30 | >120 | 15 | 15
32 | CCCCCCCCNc1cc(C)nc(-c2csc(C)n2)n1 [compound 69] | 30 | >120 | <3.75 | 7.5
33 | CCCCCCCCNc1cc(C)nc(-c2ccc(C)c(F)c2)n1 [compound 70] | 15 | >120 | <3.75 | 7.5
34 | CCCCCCCCCCCCCCNc1cc(C)nc(-c2ccc(-c3ccccc3)cc2)n1 [compound 71] | 15 | >120 | 7.5 | 7.5
35 | CCCCCCCCCCCCCCNc1cc(C)nc(-c2ccc(C(C)(C)C)cc2)n1 [compound 72] | 15 | >120 | 7.5 | 7.5
36 | CCCCCCCCCCCCCCNc1cc(C)nc(-c2cccs2)n1 [compound 73] | 7.5 | >120 | <3.75 | <3.75
37 | CCCCCCCCCCCCCCNc1cc(C)nc(-c2ccsc2)n1 [compound 74] | 7.5 | >120 | <3.75 | <3.75
38 | CCCCCCCCCCCCCCNc1cc(C)nc(-c2cccc(F)c2)n1 [compound 75] | 15 | >120 | 7.5 | 7.5
39 | CCCCCCCCCCCCCCNc1cc(C)nc(-c2ccccc2)n1 [compound 76] | 60 | >120 | 15 | 30
40 | CCCCCCCCCCCCCCNc1cc(C)nc(-c2ccncc2)n1 [compound 77] | 60 | >120 | 7.5 | 15
41 | CCCCCCCCCCCCCCNc1cc(C)nc(C)n1 [compound 78] | 7.5 | >120 | <3.75 | <3.75
42 | CCCCCCCCCCCCCCNc1cc(C)nc(-c2ccc(C)cc2)n1 [compound 79] | <3.75 | >120 | <3.75 | <3.75
43 | CCCCCCCCCCCCCCNc1cc(C)nc(C2CC2)n1 [compound 80] | 7.5 | >120 | <3.75 | 7.5
44 | CCCCCCCCCCCCCCNc1cc(C)nc(C(C)C)n1 [compound 81] | <3.75 | >120 | <3.75 | <3.75
45 | CCCCCCCCCCCCCCNc1cc(C)nc(-c2csc(C)n2)n1 [compound 82] | 15 | >120 | <3.75 | 7.5
46 | CCCCCCCCCCCCCCNc1cc(C)nc(-c2ccc(C)c(F)c2)n1 [compound 83] | 7.5 | >120 | <3.75 | <3.75
47 | CCCCCCCCCCCCNc1cc(C)nc(-c2ccc(-c3ccccc3)cc2)n1 [compound 84] | 15 | >120 | 15 | 7.5
48 | CCCCCCCCCCCCNc1cc(C)nc(-c2ccc(C(C)(C)C)cc2)n1 [compound 85] | 7.5 | <120 | 15 | 7.5
